# Measurements reported in publication PMC3898417, “A peptide derived from TIMP-3 inhibits multiple angiogenic growth factor receptors and tumour growth and inflammatory arthritis in mice” (Angiogenesis, 2013).
# Bridges are numbered along the chain shown (N, C = ends). Where no end group is shown, it is not given here.
# B1: full length TIMP-3: recombinant human tissue inhibitor of metalloproteinases-3, His-tagged, from High Five insect cells (protein)
# chain: CTCSPSHPQDAFCNSDIVIRAKVVGKKLVKEGPFGTLVYTIKQMKMYRGFTKMPHVQYIHTEASESLCGLKLEVNKYQYLLTGRVYDGKMYTGLCNFVERWDQLTLSQRKGLNYRYHLGCNCKIKSCYYLPCFVTSKNECLWTDMLSNFGYPGYQSKHYACIRQKGGYCSWYRGWAPPDKSIINATDP
# modifications: left off: His6, C-terminal, state not stated
# Key:
# [1] = system: collagen-induced arthritis; experiment: Collagen-induced-arthritis mouse (CIA) model; assay type: in vivo, DBA-1 mice; conditions: 2.5 mg/kg i.v. every 2 days
# [2] = system: primary human synovial cells (SC); experiment: In vitro synovial cell invasion assay (GFR-Matrigel); assay type: cell-based; conditions: rheumatoid arthritis synovial cells, peptide 1 h, 100 ng/ml PDGF-BB 22 h; n = 3
# Method: Synovial cell invasion was determined using a GFR-Matrigel™ invasion assay kit (BD Biosciences, USA). Serum-starved SC were treated with peptide for 1 h, followed by stimulation with 100 ng/ml PDGF-BB at 37 °C for 22 h. After incubation, non-invading cells on the upper side of the chamber were removed and the invaded cells on the lower side of the membrane were fixed with methanol and stained with Hema Gurr® rapid staining solution (Merck Chemicals, Ltd.). Cells were counted using a light microscope at 160× magnification in 3 random fields per well of 3 separate wells.
# HuDMEC [3] = experiment: VEGF165-induced cell migration (Boyden chamber); assay type: cell-based, human; conditions: 0.5 nM VEGF165, 4.5 h, up to 1 μM, n = 4
# Method: The ability of the p700 peptide to inhibit VEGF165-induced EC migration was determined using a multi-well Boyden chamber (Neuro Probe, Gaithersburg, USA). Briefly, serum-starved HuDMEC were treated with p700 for 1 h, washed and plated in the upper chamber in EBM-2 medium containing 1 % FCS on an 8 μm fibronectin pre-coated polycarbonate filter (Neuro Probe, Gaithersburg, USA). The cells were then left to migrate across the filter for 4.5 h at 37 °C with media containing 0.5 nM VEGF165 in the presence and absence of inhibitors in the lower chamber. After the incubation, non-migrating cells on the upper side of the membrane were scraped off and the migrated cells were stained with Hema Gurr® rapid staining kit (Merck Chemicals Ltd, Nottingham, UK). Migrated cells were counted using a light microscope at 160× magnification in three random fields per well of three separate wells.
# PI3K = experiment: Immunoblotting of VEGF165-induced PI3K phosphorylation; assay type: cell-based, human; conditions: 1 μM, HuDMEC, western blot; n = 3
# Method: (§1) Transfected HUVEC or HuDMEC pre-treated with 1 μM test peptides for 1 h, were stimulated with 0.5 nM of VEGF165 for 2, 5 or 10 min. Cells were lysed and phosphorylated proteins detected by western blotting using phospho-specific antibodies to either VEGFR-2, Erk1/2 or PI3K (New England BioLabs, UK). Band intensities were quantified using Bio-Rad Quantity One Analysis software and normalized using U, un-stimulated control, as 0 %; and VEGF165, positive control, as 100 % of protein phosphorylation.
# HuDMEC [4] = experiment: VEGF165-induced cell proliferation (BrdU); assay type: cell-based, human; conditions: peptide 1 h then 0.5 nM VEGF165 24 h, up to 1 μM, n = 4
# Method: Human dermal microvascular endothelial cells were serum-starved followed by incubating with p700 peptide for 1 h and then 0.5 nM of VEGF165 for 24 h at 37 °C. Cell proliferation was determined using a BrdU cell proliferation assay kit (Merck Chemicals Ltd, Nottingham, UK).
# FGFR-4 = experiment: Phosphorylation RTK sandwich ELISA; assay type: cell-based, human; conditions: HuDMEC, peptide 1 h, ligand 5 min, n = 3
# Method: (§2) Serum-deprived HuDMEC were pre-treated with test peptides for 1 h and then stimulated with growth factors (0.5 nM VEGF165, 1.6 nM bFGF, 1 nM PDGF-BB, 1.6 nM hepatocyte growth factor, 100 ng/ml EGF or 100 ng/ml insulin-like growth factor I) for 5 min. Cells were then lysed and phosphorylated proteins detected using (a) a receptor tyrosine kinase array (Human Phospho-Receptor Tyrosine Kinase Array Kit, R&D Systems Ltd.) or (b) sandwich ELISA (Duo-sets, R&D Systems Ltd.) according to the manufacturer’s instructions.
# HGFR = experiment: Phosphorylation RTK sandwich ELISA; assay type: cell-based, human; conditions: HuDMEC, peptide 1 h, 1.6 nM hepatocyte growth factor 5 min
# Method: as §2
# FGFR-1 = experiment: Phosphorylation RTK sandwich ELISA; assay type: cell-based, human; conditions: HuDMEC, peptide 1 h, ligand 5 min, n = 3
# Method: as §2
# VEGFR-2 [5] = experiment: Phosphorylation RTK sandwich ELISA; assay type: cell-based, human; conditions: HuDMEC, peptide 1 h, ligand 5 min, n = 3
# Method: as §2
# PDGFR-α = experiment: Phosphorylation RTK sandwich ELISA; assay type: cell-based, human; conditions: HuDMEC, peptide 1 h, ligand 5 min, n = 3
# Method: as §2
# FGFR-2α = experiment: Phosphorylation RTK sandwich ELISA; assay type: cell-based, human; conditions: HuDMEC, peptide 1 h, ligand 5 min, n = 3
# Method: as §2
# VEGFR-1 [6] = experiment: Phosphorylation RTK sandwich ELISA; assay type: cell-based, human; conditions: HuDMEC, peptide 1 h, ligand 5 min, n = 3
# Method: as §2
# FGFR-3 = experiment: Phosphorylation RTK sandwich ELISA; assay type: cell-based, human; conditions: HuDMEC, peptide 1 h, ligand 5 min, n = 3
# Method: as §2
# VEGFR-3 = experiment: Phosphorylation RTK sandwich ELISA; assay type: cell-based, human; conditions: HuDMEC, peptide 1 h, ligand 5 min, n = 3
# Method: as §2
# [7] = system: insulin-like growth factor 1 receptor; experiment: Phosphorylation RTK sandwich ELISA; assay type: cell-based, human; conditions: HuDMEC, peptide 1 h, 100 ng/ml insulin-like growth factor I 5 min
# Method: as §2
# HuDMEC [8] = experiment: Tube formation assay on Matrigel; assay type: cell-based, human; conditions: for inhibition of VEGF165-induced HuDMEC tube formation / inhibition of tubule formation in response to VEGF121: 1 μM peptide, n = 4; for inhibition of VEGF165-induced HuDMEC tube formation: 0.5 nM VEGF165, 6 h; for inhibition of bFGF-induced tubule formation: 1.6 nM bFGF
# Method: Serum-starved HuDMEC were seeded onto Matrigel™ matrix pre-coated 96 well plates (BD Biosciences, Cowley, Oxford, UK) at a density of 1 × 10^4 cells/well in 100 μl EBM-2 medium. Peptides were then added into each corresponding well and incubated for 1 h at 37 °C, followed by stimulated with growth factors, 0.5 nM VEGF165, 1 nM PDGF-BB or 1.6 nM bFGF, to induce tubule development. The tubules formed were examined 6 h after stimulation under a low power (40×) light microscope. Images were captured and analysed by measuring the average tubule length using ImageJ software (National Institutes of Health, USA).
# EGFR = experiment: Phospho-receptor tyrosine kinase array; assay type: cell-based, human; conditions: HuDMEC, 100 ng/ml EGF 5 min, phospho-RTK array, preliminary screen, data not shown
# Method: as §2
# VEGFR-2 [9] = experiment: Immunoblotting of VEGF165-induced VEGFR-2 phosphorylation; assay type: cell-based, human; conditions: 1 μM, HuDMEC, western blot; n = 3
# Method: as §1
# 4T1 mammary tumour = experiment: Syngeneic mammary tumour model (4T1); assay type: in vivo, BALB/c mice
# Method: 10^6 4T1 cells were subcutaneously (s.c.) implanted into the right flank of 5–6 weeks old female BALB/c mice (Charles River Laboratories, Margate, UK) and grown until the tumour size reached 100–350 mm^3. The tumour sizes were measured using callipers as described previously. Once the size of the tumours reached 100–350 mm^3, mice were randomized into control and treatment groups and injected with either vehicle alone (PBS), 0.025, 0.25 or 2.5 mg/kg of p700 peptide in PBS, either directly into the tumour (i.t.) once per week for 2 doses; or intravenously (i.v.) every other day for 5 doses. At the end of the experiment, animals were culled and tumours and normal tissues, including lung and liver, excised and fixed with 10 % neutral buffered formalin for subsequent analysis, which included general histology and quantitative measurement of microvascular density (MVD) and necrosis. For MVD measurement, rabbit-anti-mouse CD31 (AbD Serotech, Kidlington, Oxford, UK) antibody was used and sections were stained according to standard immunohistological staining protocols for formalin-fixed tissue sections. Microvessel density was estimated by measuring the percentage of CD31 positive staining in the tumour sections (15 areas per tumour slide, 7 tumour slides per group) using AnalySIS^^D image analysis software (Olympus, UK). For the necrotic area inside the tumour, tumour slides were stained with H&E. Images were measured at 200× magnification, photographed (15 areas per tumour slide, 7 tumour slides per group) and analysed by AnalySIS^^D image analysis software (Olympus, UK). Normal tissues including lung and liver were stained with H&E to study tumour metastasis. Total number of metastases per mouse was determined as the number of metastatic foci on five sections for each animal (n = 7). Incidence of metastasis was calculated as the percentage of mice with one or more metastatic nodules in the tissues. Metastasis severity was scored as follows: […], minimal (score 1 = ≤ 4 metastatic nodules), medium (score 2 = 5–7 metastatic nodules) or extensive involvement (score 3 = ≥ 8 metastatic nodules). Each nodule contained ≥5 nuclei.
# [10] = system: recombinant human VEGFR-2; experiment: Solid phase binding assay: competition with biotinylated-VEGF165; conditions: plate-coated rhVEGFR-2-Fc; biotinylated-VEGF165 2.4 nM, 1 h room temperature; Fig. 1
# Method: Ninety six-well plates were coated with the extracellular domain of recombinant human VEGFR-2 fused to the Fc domain of human IgG1 (rhVEGFR-2, R&D Systems, UK) by overnight incubation followed by blocking in 5 % bovine serum albumin/PBS. […] After washing, the biotinylated-VEGF165 was detected with avidin-horse-radish peroxidase and OPD substrate (Sigma-Aldrich, UK) followed by spectrophotometry.
# HuDMEC [11] = experiment: Toxicity to HuDMEC by propidium iodide staining; assay type: cell-based, human; conditions: data not shown
# VEGFR-1 [12] = conditions: cited from earlier work
# From the text: (§3) TIMP-3 appears to bind VEGFR-2 specifically, with no inhibition of the closely related VEGFR-1, FGFR1 or PDGFR-β receptors.
# PDGFR-β = conditions: cited from earlier work
# From the text: as §3
# FGFR1 = conditions: cited from earlier work
# From the text: as §3
molecule,measurement,setting,value
KIKSCYYLPCFVTSKN (disulfide 5-10 (inferred)) [p700],CIA progression,"[1]; 7 doses, vehicle n = 8, p700 n = 10",significantly inhibited
same,clinical presentation of disease (arthritis score),[1]; p < 0.001 2-way ANOVA,reduced
same,hind paw inflammation (hind paw volume),"[1]; plethysmometry, p < 0.05 2-way ANOVA, AUC NS",reduced
same,inhibition of PDGF-BB induced synovial cell invasion,[2],approximately 40%
same,maximum inhibition of VEGF165-induced migration,HuDMEC [3],67%
same,inhibition of VEGF165-induced phosphorylation of PI3K,PI3K,approximately 50%
same,maximum inhibition of VEGF165-induced cell proliferation,HuDMEC [4],40%
same,inhibition of FGFR-4 phosphorylation,FGFR-4,significant inhibition
same,inhibition of HGFR phosphorylation,HGFR,no inhibition
same,inhibition of FGFR-1 phosphorylation,FGFR-1,significant inhibition
same,inhibition of VEGFR-2 phosphorylation,VEGFR-2 [5],significant inhibition
same,inhibition of PDGFR-α phosphorylation,PDGFR-α,significant inhibition
same,inhibition of FGFR-2α phosphorylation,FGFR-2α,significant inhibition
same,inhibition of VEGFR-1 phosphorylation,VEGFR-1 [6],significant inhibition
same,inhibition of FGFR-3 phosphorylation,FGFR-3,significant inhibition
same,inhibition of VEGFR-3 phosphorylation,VEGFR-3,significant inhibition
same,inhibition of insulin-like growth factor 1 receptor phosphorylation,[7],no inhibition
same,inhibition of VEGF165-induced HuDMEC tube formation,HuDMEC [8],> 99%
same,inhibition of tubule formation in response to VEGF121,HuDMEC [8],> 97%
same,inhibition of PDGF-BB-induced tubule formation,"HuDMEC [8]; HuDMEC, 1 nM PDGF-BB, 6 h, n = 3, Fig. 3b",inhibited
same,inhibition of bFGF-induced tubule formation,"HuDMEC [8]; HuDMEC, 6 h, n = 3, Fig. 3b",inhibited
same,effect on tubule formation in the absence of VEGF,"HuDMEC [8]; relative to untreated cells, data not shown",no effect
same,inhibition of EGFR,EGFR,not inhibited
same,inhibition of VEGF165-induced VEGFR-2 phosphorylation,VEGFR-2 [9],approximately 50%
same,increased tumour necrosis,"4T1 mammary tumour; H&E sections, treated group vs control",failed to reach significance
same,reduction in microvascular density (anti-CD31 staining),"4T1 mammary tumour; both treatment groups (i.t. and i.v.) compared to control groups, n = 7 tumours/group",approximately 50%
same,"effect on tumour growth, intravenous dosing","4T1 mammary tumour; i.v. every 2 days, 0.25 mg/kg or above, 4T1 s.c. in BALB/c mice, n = 7",almost totally abolished tumour growth
same,decreased metastases,"4T1 mammary tumour; lung and liver H&E sections, treated group vs control",failed to reach significance
same,"effect on tumour growth, intra-tumour dosing","4T1 mammary tumour; weekly i.t. dose of 0.25 mg/kg, 4T1 s.c. in BALB/c mice, n = 7",almost totally abolished tumour growth
same,ability to inhibit the binding of VEGF165 to rhVEGFR-2,[10],able to inhibit
GLKLEVNKYQYLLTGR [p323],ability to inhibit the binding of VEGF165 to rhVEGFR-2,[10],not
"fibrinopeptide A (ADSGEGDFLAEGGGVR; Fibrinopeptide A; UniProt P02671 20-35, looked up) [control peptide, 16 amino acid biologically inert control peptide, purchased from Bachem, reference compound]",maximum inhibition of VEGF165-induced migration,HuDMEC [3],no significant effect
same,inhibition of VEGF165-induced phosphorylation of PI3K,PI3K,no significant effect
same,maximum inhibition of VEGF165-induced cell proliferation,HuDMEC [4],no significant effect
same,concentration showing some toxicity to HuDMEC,HuDMEC [11],≥ 10 µM
same,inhibition of VEGF165-induced HuDMEC tube formation,HuDMEC [8],no significant effect
same,inhibition of tubule formation in response to VEGF121,HuDMEC [8],no significant effect
same,inhibition of VEGF165-induced VEGFR-2 phosphorylation,VEGFR-2 [9],no significant effect
B1,inhibition of VEGFR-1,VEGFR-1 [12],no inhibition
same,inhibition of PDGFR-β,PDGFR-β,no inhibition
same,inhibition of FGFR1,FGFR1,no inhibition
same,inhibition of bFGF-induced tubule formation,"HuDMEC [8]; HuDMEC, 6 h, n = 3, Fig. 3b",some inhibition
same,inhibition of VEGF165-induced VEGFR-2 phosphorylation,VEGFR-2 [9],45%
same,ability to inhibit the binding of VEGF165 to rhVEGFR-2,[10],able to inhibit
